How the values were obtained:
Type in all cases: in vivo
[1] = test system: Beet Armyworm (Spodoptera exigua, LAPHEG); assay: Bioassay on Beet Armyworm (BAW), 128-well diet tray assay; settings: 168 h, 50 μg/cm^2 on artificial diet, second instar larvae, five to seven days, 25° C., read-out: BAW % Control (or Mortality) rating
Method in brief: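 Second instar larvae, one to five per well, placed on artificial diet treated with 50 μg/cm^2 compound (in 90:10 acetone-water) and dried; eight wells per compound. Held at 25° C, 14:10 light-dark, five to seven days. Percent mortality recorded per well and averaged.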

[2] = test system: Cabbage Looper (Trichoplusia ni, TRIPNI); assay: Bioassay on Cabbage Looper (CL), 128-well diet tray assay; settings: 168 h, 50 μg/cm^2 on artificial diet, second instar larvae, five to seven days, 25° C., read-out: CL % Control (or Mortality) rating
Method in brief: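 Diet-tray test with one to five second-instar larvae per well on artificial diet treated with 50 μg/cm^2 compound (in 90:10 acetone-water), dried, eight wells per molecule. Held 25 °C, 14:10 light-dark for five to seven days; percent mortality averaged over the eight wells.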

[3] = test system: Green Peach Aphid (Myzus persicae, MYZUPE); assay: Bioassay on Green Peach Aphid (GPA), foliar spray on cabbage seedlings; settings: 72 h, 200 ppm foliar spray on cabbage seedlings, three days, Abbott corrected % control, read-out: GPA % Control (or Mortality) rating
Method: Example B: Bioassays on Green Peach Aphid (Myzus persicae, MYZUPE) (“GPA”)
Certain molecules disclosed in this document were tested against GPA using procedures described in the following example. In the reporting of the results, the “GPA Rating Table” was used (See Table Section).
Cabbage seedlings grown in 3-inch pots, with 2-3 small (3-5 cm) true leaves, were used as test substrate. The seedlings were infested with 20-50 GPA (wingless adult and nymph stages) one day prior to chemical application. Four pots with individual seedlings were used for each treatment. Test molecules (2 mg) were dissolved in 2 mL of acetone/methanol (1:1) solvent, forming stock solutions of 1000 ppm test molecule. The stock solutions were diluted 5× with 0.025% Tween 20 in water to obtain the solution at 200 ppm test molecule. A hand-held aspirator-type sprayer was used for spraying a solution to both sides of […] leaves until runoff. Reference plants (solvent check) were sprayed with the diluent only containing 20% by volume of acetone/methanol (1:1) solvent. Treated plants were held in a holding room for three days at approximately 25° C. and ambient relative humidity (RH) prior to grading. Evaluation was conducted by counting the number of live aphids per plant under a microscope. Percent Control was measured by using Abbott's correction formula (W. S. Abbott, “A Method of Computing the Effectiveness of an Insecticide” J. Econ. Entomol. 18 (1925), pp. 265-267) as follows. Corrected % Control=100*(X−Y)/X • where • X=No. of live aphids on solvent check plants and • Y=No. of live aphids on treated plants
The results are indicated in the table entitled “Table ABC: Biological Results” (See Table Section).

[4] = test system: Yellow Fever Mosquito (Aedes aegypti, AEDSAE); assay: Bioassay on Yellow Fever Mosquito (YFM) larvae, 96-well plate; settings: about 1 day-old larvae, 4000 ppm DMSO master plate diluted, graded after 3 days
Method in brief: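 Compounds from 4000 ppm DMSO master stocks, diluted in 90:10 water:acetone, dispensed into wells and infested with about 1-day-old Aedes aegypti larvae in liver-powder water. Six replicate plates, covered and held at room temperature for 3 days, then each well scored for mortality.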

Question: `COc1ccccc1-n1nccc1NC(=O)Nc1ccc(-c2ncn(-c3ccc(OC(F)(F)C(F)(F)F)cc3)n2)cc1` [F19, 1-(1-(2-Methoxyphenyl)-1H-pyrazol-5-yl)-3-(4-(1-(4-(perfluoroethoxy)phenyl)-1H-1,2,4-triazol-3-yl)phenyl)urea] was tested. Which mortality at 50 µg/cm2 [1] did it give?
Answer: 50 to 100%

Question: What about the mortality at 50 µg/cm2 [2] of the same molecule?
Answer: 50 to 100%

Question: And the mortality at 200 ppm [3]?
Answer: 0 to 80%

Question: What about the “YFM % Control (or Mortality) rating” value [4] of the same molecule?
Answer: A (80-100)

Question: What does the source list for `Cc1ccc(F)cc1-n1nccc1NC(=O)Nc1ccc(-c2ncn(-c3ccc(OC(F)(F)F)cc3)n2)cc1` [F5, 1-(1-(5-Fluoro-2-methylphenyl)-1H-pyrazol-5-yl)-3-(4-(1-(4-(trifluoromethoxy)phenyl)-1H-1,2,4-triazol-3-yl)phenyl)urea]?
Answer: mortality at 50 µg/cm2 [1]: 50 to 100%; mortality at 50 µg/cm2 [2]: 50 to 100%; mortality at 200 ppm [3]: 0%; YFM % Control (or Mortality) rating [4]: A (80-100)

Question: With `Cc1ccc(-n2nccc2NC(=O)Nc2ccc(-c3ncn(-c4ccc(OC(F)(F)C(F)(F)F)cc4)n3)cc2)c(C)c1` [F15, 1-(1-(2,4-Dimethylphenyl)-1H-pyrazol-5-yl)-3-(4-(1-(4-(perfluoroethoxy)phenyl)-1H-1,2,4-triazol-3-yl)phenyl)urea] as the molecule, how does the mortality at 50 µg/cm2 [1] read?
Answer: 50 to 100%

Question: And the mortality at 50 µg/cm2 [2]?
Answer: 50 to 100%

Question: And the mortality at 200 ppm [3]?
Answer: 0 to 80%

Question: And the “YFM % Control (or Mortality) rating” value [4]?
Answer: A (80-100)

Question: For `O=C(Nc1ccc(-c2ncn(-c3ccc(OC(F)(F)F)cc3)n2)cc1)Nc1ccnn1-c1cc(Cl)ccc1Cl` [F12, 1-(1-(2,5-Dichlorophenyl)-1H-pyrazol-5-yl)-3-(4-(1-(4-(trifluoromethoxy)phenyl)-1H-1,2,4-triazol-3-yl)phenyl)urea], which mortality at 50 µg/cm2 [1] is on record?
Answer: 50 to 100%

Question: What about the mortality at 50 µg/cm2 [2] of the same molecule?
Answer: 50 to 100%

Question: And the mortality at 200 ppm [3]?
Answer: 0 to 80%

Question: What about the “YFM % Control (or Mortality) rating” value [4] of the same molecule?
Answer: A (80-100)

Question: For `Cc1ccc(F)cc1-n1nccc1NC(=O)Nc1ccc(-c2ncn(-c3ccc(OC(F)(F)C(F)(F)F)cc3)n2)cc1` [F16, 1-(1-(5-Fluoro-2-methylphenyl)-1H-pyrazol-5-yl)-3-(4-(1-(4-(perfluoroethoxy)phenyl)-1H-1,2,4-triazol-3-yl)phenyl)urea], which mortality at 50 µg/cm2 [1] is on record?
Answer: 50 to 100%

Question: What about the mortality at 50 µg/cm2 [2] of the same molecule?
Answer: 50 to 100%

Question: What about the mortality at 200 ppm [3] of the same molecule?
Answer: 0%

Question: And the “YFM % Control (or Mortality) rating” value [4]?
Answer: A (80-100)

Question: What does the source list for `Cc1ccc(C)c(-n2nccc2NC(=O)Nc2ccc(-c3ncn(-c4ccc(OC(F)(F)F)cc4)n3)cc2)c1` [F7, 1-(1-(2,5-Dimethylphenyl)-1H-pyrazol-5-yl)-3-(4-(1-(4-(trifluoromethoxy)phenyl)-1H-1,2,4-triazol-3-yl)phenyl)urea]?
Answer: mortality at 50 µg/cm2 [1]: 50 to 100%; mortality at 50 µg/cm2 [2]: 50 to 100%; mortality at 200 ppm [3]: 0 to 80%; YFM % Control (or Mortality) rating [4]: A (80-100)

Question: Which mortality at 50 µg/cm2 [1] does the source give for `Cc1ccc(-n2nccc2NC(=O)Nc2ccc(-c3ncn(-c4ccc(OC(F)(F)F)cc4)n3)cc2)c(C)c1` [F9, 1-(1-(2,4-Dimethylphenyl)-1H-pyrazol-5-yl)-3-(4-(1-(4-(trifluoromethoxy)phenyl)-1H-1,2,4-triazol-3-yl)phenyl)urea] here?
Answer: 50 to 100%

Question: What about the mortality at 50 µg/cm2 [2] of the same molecule?
Answer: 50 to 100%

Question: And the mortality at 200 ppm [3]?
Answer: 0 to 80%

Question: And the “YFM % Control (or Mortality) rating” value [4]?
Answer: A (80-100)

Question: `Cc1cc(Cl)ccc1-n1nccc1NC(=O)Nc1ccc(-c2ncn(-c3ccc(OC(F)(F)F)cc3)n2)cc1` [F3, 1-(1-(4-Chloro-2-methylphenyl)-1H-pyrazol-5-yl)-3-(4-(1-(4-(trifluoromethoxy)phenyl)-1H-1,2,4-triazol-3-yl)phenyl)urea] was tested. Which mortality at 50 µg/cm2 [1] did it give?
Answer: 50 to 100%

Question: What about the mortality at 50 µg/cm2 [2] of the same molecule?
Answer: 50 to 100%

Question: And the mortality at 200 ppm [3]?
Answer: 0%

Question: And the “YFM % Control (or Mortality) rating” value [4]?
Answer: A (80-100)

Question: Which results are given for `COc1ccccc1-n1nccc1NC(=O)Nc1ccc(-c2ncn(-c3ccc(OC(F)(F)F)cc3)n2)cc1` [F13, 1-(1-(2-Methoxyphenyl)-1H-pyrazol-5-yl)-3-(4-(1-(4-(trifluoromethoxy)phenyl)-1H-1,2,4-triazol-3-yl)phenyl)urea]?
Answer: mortality at 50 µg/cm2 [1]: 50 to 100%; mortality at 50 µg/cm2 [2]: 50 to 100%; mortality at 200 ppm [3]: 0%; YFM % Control (or Mortality) rating [4]: A (80-100)

Question: How did the mortality at 50 µg/cm2 [1] turn out when `Cc1ccc(C)c(-n2nccc2NC(=O)Nc2ccc(-c3ncn(-c4ccc(OC(F)(F)C(F)(F)F)cc4)n3)cc2)c1` [F17, 1-(1-(2,5-Dimethylphenyl)-1H-pyrazol-5-yl)-3-(4-(1-(4-(perfluoroethoxy)phenyl)-1H-1,2,4-triazol-3-yl)phenyl)urea] was run?
Answer: 50 to 100%

Question: What about the mortality at 50 µg/cm2 [2] of the same molecule?
Answer: 50 to 100%

Question: What about the mortality at 200 ppm [3] of the same molecule?
Answer: 0 to 80%

Question: And the “YFM % Control (or Mortality) rating” value [4]?
Answer: A (80-100)

Question: With `CCc1ccccc1-n1nccc1NC(=O)Nc1ccc(-c2ncn(-c3ccc(OC(F)(F)F)cc3)n2)cc1` [F6, 1-(1-(2-Ethylphenyl)-1H-pyrazol-5-yl)-3-(4-(1-(4-(trifluoromethoxy)phenyl)-1H-1,2,4-triazol-3-yl)phenyl)urea] as the molecule, how does the mortality at 50 µg/cm2 [1] read?
Answer: 50 to 100%

Question: And the mortality at 50 µg/cm2 [2]?
Answer: 50 to 100%

Question: What about the mortality at 200 ppm [3] of the same molecule?
Answer: 0%

Question: And the “YFM % Control (or Mortality) rating” value [4]?
Answer: A (80-100)

Question: Which results are given for `O=C(Nc1ccc(-c2ncn(-c3ccc(OC(F)(F)F)cc3)n2)cc1)Nc1ccnn1-c1c(Cl)cccc1Cl` [F4, 1-(1-(2,6-Dichlorophenyl)-1H-pyrazol-5-yl)-3-(4-(1-(4-(trifluoromethoxy)phenyl)-1H-1,2,4-triazol-3-yl)phenyl)urea]?
Answer: mortality at 50 µg/cm2 [1]: 50 to 100%; mortality at 50 µg/cm2 [2]: 50 to 100%; mortality at 200 ppm [3]: 0 to 80%; YFM % Control (or Mortality) rating [4]: A (80-100)

Question: With `O=C(Nc1ccc(-c2ncn(-c3ccc(OC(F)(F)C(F)(F)F)cc3)n2)cc1)Nc1ccnn1-c1c(Cl)cccc1Cl` [F14, 1-(1-(2,6-Dichlorophenyl)-1H-pyrazol-5-yl)-3-(4-(1-(4-(perfluoroethoxy)phenyl)-1H-1,2,4-triazol-3-yl)phenyl)urea] as the molecule, how does the mortality at 50 µg/cm2 [1] read?
Answer: 50 to 100%

Question: What about the mortality at 50 µg/cm2 [2] of the same molecule?
Answer: 50 to 100%

Question: What about the mortality at 200 ppm [3] of the same molecule?
Answer: 0 to 80%

Question: What about the “YFM % Control (or Mortality) rating” value [4] of the same molecule?
Answer: A (80-100)

Question: Which results are given for `Cc1cc(C)c(-n2nccc2NC(=O)Nc2ccc(-c3ncn(-c4ccc(OC(F)(F)C(F)(F)F)cc4)n3)cc2)c(C)c1` [F18, 1-(1-Mesityl-1H-pyrazol-5-yl)-3-(4-(1-(4-(perfluoroethoxy)phenyl)-1H-1,2,4-triazol-3-yl)phenyl)urea]?
Answer: mortality at 50 µg/cm2 [1]: 50 to 100%; mortality at 50 µg/cm2 [2]: 50 to 100%; mortality at 200 ppm [3]: 0 to 80%; YFM % Control (or Mortality) rating [4]: A (80-100)

Question: What does the source list for `Cc1cc(C)c(-n2nccc2NC(=O)Nc2ccc(-c3ncn(-c4ccc(OC(F)(F)F)cc4)n3)cc2)c(C)c1` [F11, 1-(1-Mesityl-1H-pyrazol-5-yl)-3-(4-(1-(4-(trifluoromethoxy)phenyl)-1H-1,2,4-triazol-3-yl)phenyl)urea]?
Answer: mortality at 50 µg/cm2 [1]: 50 to 100%; mortality at 50 µg/cm2 [2]: 50 to 100%; mortality at 200 ppm [3]: 0%; YFM % Control (or Mortality) rating [4]: A (80-100)

Reference: patent US10212936B2, “Molecules having pesticidal utility, and intermediates, compositions, and processes, related thereto” (priority 2014, dated 2019)
